Like-named read-outs stand apart in the source and are kept apart here.
How the values were obtained:
Format in all cases: cell-based
[1] = test system: Klebsiella pneumoniae ATCC 13883; test: MIC, 2-fold dilution method in micro-well plate, K. pneumoniae
Protocol: (§1) The in vitro antibiotic activity of the present compound is measured using 2-fold dilution method with a micro-well plate and the bacteria are inoculated in about 10^5 cfu/ml after an overnight culture in a brain-heart infusion (BHI) broth at 37° C. The novel compounds of the present invention are converted to a hydrochloride salt form and diluted with a sterilized distilled water to make 10 mg/ml aqueous solution. After the mother liquor wherein the compound is diluted to the two-fold concentration has been obtained in the form of an aqueous solution, the respective 0.1 ml of diluted liquor is transferred to a well and is inoculated with 0.1 ml of the culture fluid to make about (10^5 -10^6)/2 cfu/ml.
(§2) After cultivation at 37° C., the minimum inhibitory concentration (MIC) is measured and recorded in Table I-V.
(§3) Table I-V show the minimum inhibitory concentrations (MIC).
Klebsiella pneumoniae ATCC 13883

[2] = test system: Proteus vulgaris ATCC 13315; test: MIC, 2-fold dilution method in micro-well plate, P. vulgaris
Protocol: as §1, §2, §3
Proteus vulgaris ATCC 13315

[3] = test system: Pseudomonas aeruginosa ATCC 27853; test: MIC, 2-fold dilution method in micro-well plate, P. aeruginosa; settings: P. aerugirnosa ATCC27853, 37° C., read-out: Minimum Inhibitory Concentration
Protocol: as §1, §2, §3
Pseudomonas aeruginosa ATCC 27853

[4] = test system: Haemophilus influenza ATCC 35056; test: MIC, 2-fold dilution method in micro-well plate, H. influenzae; settings: H. influenzae ATCC35056, 37° C.; read-out: Minimum Inhibitory Concentration
Protocol: as §1, §2, §3
Haemophilus influenza ATCC 35056

[5] = test system: Streptococcus faecalis ATCC 29212; test: MIC, 2-fold dilution method in micro-well plate, S. faecalis ATCC 29212; settings: Enterococcus faecalis; S. faecalis ATCC29212, 37° C.; read-out: Minimum Inhibitory Concentration
Protocol: as §1, §2, §3
Streptococcus faecalis ATCC 29212

[6] = test system: Enterobacter cloacae; test: MIC, 2-fold dilution method in micro-well plate, E. cloacae; settings: read-out: Minimum Inhibitory Concentration
Protocol: as §1, §2, §3
Enterobacter cloacae ATCC 23355

[7] = test system: Streptococcus pneumoniae ATCC 6303; test: MIC, 2-fold dilution method in micro-well plate, S. pneumoniae; settings: S. pneuinoniae ATCC6303, 37° C., read-out: Minimum Inhibitory Concentration
Protocol: as §1, §2, §3
Streptococcus pneumoniae ATCC 6303

[8] = test system: Acinetobacter calcoaceticus; test: MIC, 2-fold dilution method in micro-well plate, A. calcoaceticus
Protocol: as §1, §2
Table I-V show the minimum inhibitory concentrations (MIC). […]

[9] = test system: Salmonella typhimurium ATCC 14028; test: MIC, 2-fold dilution method in micro-well plate, S. typhimurium; settings: Salmonella enterica, read-out: Minimum Inhibitory Concentration
Protocol: as §1, §2, §3
Salmonella typhimurium ATCC 14028

[10] = test system: Enterobacter aerogenes ATCC 13048; test: MIC, 2-fold dilution method in micro-well plate, E. aerogenes; settings: Klebsiella aerogenes
Protocol: as §1, §2, §3
Enterobacter aerogenes ATCC 13048

[11] = test system: Serratia marcescens ATCC 8100; test: MIC, 2-fold dilution method in micro-well plate, S. marcescens
Protocol: as §1, §2, §3
Serratia marcescens ATCC 8100

[12] = test system: Shigella flexneri ATCC 12022; test: MIC, 2-fold dilution method in micro-well plate, S. flexneri; settings: S. flexneri ATCC12022, 37° C., read-out: Minimum Inhibitory Concentration
Protocol: as §1, §2, §3
Shigella flexneri ATCC 12022

[13] = test system: Escherichia coli ATCC 25922; test: MIC, 2-fold dilution method in micro-well plate, E. coli
Protocol: as §1, §2, §3
Escherichia coli ATCC 25922

[14] = test system: Streptococcus faecalis ATCC 19433; test: MIC, 2-fold dilution method in micro-well plate, S. faecalis ATCC 19433; settings: Enterococcus faecalis; S. faecalis ATCC19433, 37° C.; read-out: Minimum Inhibitory Concentration
Protocol: as §1, §2, §3
Streptococcus faecalis ATCC 19433

[15] = test system: Citrobacter freundii ATCC 8090; test: MIC, 2-fold dilution method in micro-well plate, C. freundii
Protocol: as §1, §2, §3
Citrobacter freundii ATCC 8090

[16] = test system: Shigella sonnei ATCC 25931; test: MIC, 2-fold dilution method in micro-well plate, S. sonnei; settings: S. sonnei ATCC25931, 37° C., read-out: Minimum Inhibitory Concentration
Protocol: as §1, §2, §3
Shigella sonnei ATCC 25931

[17] = test system: Streptococcus pyrogens ATCC 19615; test: MIC, 2-fold dilution method in micro-well plate, S. pyrogens; settings: S. pyrogenes ATCC19615, 37° C., read-out: Minimum Inhibitory Concentration
Protocol: as §1, §2, §3
Streptococcus pyrogens ATCC 19615

[18] = K. pneumoniae ATCC13883, 37° C., read-out: Minimum Inhibitory Concentration
[19] = ATCC13315, read-out: Minimum Inhibitory Concentration
[20] = A. calcoaceticus ATCC8090 (as in tables), 37° C., read-out: Minimum Inhibitory Concentration
[21] = ATCC13048, read-out: Minimum Inhibitory Concentration
[22] = ATCC8100, read-out: Minimum Inhibitory Concentration
[23] = ATCC25922, read-out: Minimum Inhibitory Concentration
[24] = ATCC8090, read-out: Minimum Inhibitory Concentration
[25] = P. vulgaris ATCC13315, 37° C., read-out: Minimum Inhibitory Concentration
[26] = E. cloacae ATCC23355 (as in tables), 37° C.
[27] = S. typhisurium ATCC14028, 37° C.
[28] = E. aerogenes ATCC13048, 37° C., read-out: Minimum Inhibitory Concentration
[29] = S. marcescens ATCC8100, 37° C., read-out: Minimum Inhibitory Concentration
[30] = E. coli ATCC25922, 37° C., read-out: Minimum Inhibitory Concentration
[31] = C. freundii ATCC8090, 37° C., read-out: Minimum Inhibitory Concentration
[32] = ATCC13883, read-out: Minimum Inhibitory Concentration

Compound | MIC [1, 18] [µg/mL] | MIC [2, 19] [µg/mL] | MIC [3] [µg/mL] | MIC [4] [µg/mL] | MIC [5] [µg/mL] | MIC [6] [µg/mL] | MIC [7] [µg/mL] | MIC [8, 20] [µg/mL] | MIC [9] [µg/mL] | MIC [10, 21] [µg/mL] | MIC [12] [µg/mL] | MIC [14] [µg/mL] | MIC [15, 24] [µg/mL] | MIC [16] [µg/mL] | MIC [17] [µg/mL] | MIC [2, 25] [µg/mL] | MIC [6, 26] [µg/mL] | MIC [10, 28] [µg/mL] | MIC [11, 29] [µg/mL] | MIC [13, 30] [µg/mL] | also measured
Cl.O=C(O)c1cn(-c2ccc(F)cn2)c2c(F)c(N3CCNCC3)c(F)cc2c1=O [Example 23, 1-(5-fluoro-2-pyridyl)-6,8-difluoro-7-(1-piperazinyl)-1,4-dihydro-4-oxoquinoline-3-carboxylic acid hydrochloride] | 1.25 | 0.313 | 1.25 | 0.625 | 5 | 0.625 | 2.5 | 1.25 | 0.313 | 0.625 | 0.313 | 5 | 0.625 | 0.078 | 5 |  |  |  |  |  | MIC [11, 22]: 0.625 µg/mL; MIC [13, 23]: 0.625 µg/mL
Cl.NC1CCN(c2c(F)cc3c(=O)c(C(=O)O)cn(-c4ccc(F)cn4)c3c2F)C1 (centres unmarked) [Example 27, 1-(5-fluoro-2-pyridyl)-6,8-difluoro-7-(3-amino-1-pyrrolidinyl)-1,4-dihydro-4-oxoquinoline-3-carboxylic acid hydrochloride] | 0.156 |  | 0.313 | 0.078 | 2.5 |  | 2.5 | 0.313 |  |  | 0.078 | 1.25 |  | 0.005 | 2.5 | 0.156 | 0.313 | 0.156 | 0.313 | 0.078 | MIC [9, 27]: 0.078 µg/mL; MIC [15, 31]: 0.156 µg/mL
CC1CN(c2nc3c(cc2F)c(=O)c(C(=O)O)cn3-c2ccc(F)cn2)CC(C)N1.Cl (centres unmarked) [Example 15, 1-(5-fluoro-2-pyridyl)-6-fluoro-7-(3,5-dimethyl-1-piperazinyl)-1,4-dihydro-4-oxo-1,8-naphthyridine-3-carboxylic acid hydrochloride] | 0.625 |  | 1.25 | 2.5 | 5 |  | 10 | 0.625 |  |  | 0.313 | 5 | 0.313 | 0.078 | 10 | 1.25 | 0.625 | 1.25 | 1.25 | 0.625 | MIC [9, 27]: 1.25 µg/mL
CC1CN(c2c(F)cc3c(=O)c(C(=O)O)cn(-c4ccc(F)cn4)c3c2F)CCN1.Cl (centres unmarked) [Example 25, 1-(5-fluoro-2-pyridyl)-6,8-difluoro-7-(3-methyl-1-piperazinyl)-1,4-dihydro-4-oxoquinoline-3-carboxylic acid hydrochloride] |  | 0.625 | 0.313 | 0.625 | 5 | 0.625 | 5 | 1.25 | 0.625 | 0.625 | 0.156 | 5 | 0.625 | 0.156 | 10 |  |  |  | 1.25 |  | MIC [1, 32]: 0.625 µg/mL; MIC [13, 23]: 0.625 µg/mL
Cl.NC1CCN(c2cc3c(cc2F)c(=O)c(C(=O)O)cn3-c2ccc(F)cn2)C1 (centres unmarked) [Example 21, 1-(5-fluoro-2-pyridyl)-6-fluoro-7-(3-amino-1-pyrrolidinyl)-1,4-dihydro-4-oxoquinoline-3-carboxylic acid hydrochloride] | 0.078 |  | 0.313 | 0.078 | 1.25 | 0.156 | 2.5 |  | 0.156 | 0.156 | 0.078 | 1.25 |  | 0.02 | 2.5 | 0.078 |  |  | 0.078 | 0.078 | MIC [8, 24]: 0.156 µg/mL; MIC [15, 31]: 0.078 µg/mL
Cl.NC1CCN(c2nc3c(cc2F)c(=O)c(C(=O)O)cn3-c2ccc(F)cn2)C1 (centres unmarked) [Example 16, 1-(5-fluoro-2-pyridyl)-6-fluoro-7-(3-amino-1-pyrrolidinyl)-1,4-dihydro-4-oxo-1,8-naphthyridine-3-carboxylic acid hydrochloride] | 0.078 |  | 0.156 | 0.078 | 0.625 |  | 1.25 | 0.156 |  |  | 0.039 | 1.25 |  | 0.02 | 2.5 | 0.078 | 0.156 | 0.313 | 0.078 | 0.078 | MIC [9, 27]: 0.313 µg/mL; MIC [15, 31]: 0.078 µg/mL
CN1CCN(c2cc3c(cc2F)c(=O)c(C(=O)O)cn3-c2ccncc2F)CC1.Cl [Example 2, 1-(3-fluoro-4-pyridyl)-6-fluoro-7-(4-methyl-1-piperazinyl)-1,4-dihydro-4-oxoquinoline-3-carboxylic acid hydrochloride] |  | 0.625 | 0.625 | 0.625 | 5 | 0.625 | 10 |  | 0.625 |  | 0.625 | 5 | 0.625 | 0.625 | 10 |  |  | 1.25 |  | 1.25 | MIC [1, 32]: 0.625 µg/mL; MIC [8, 24]: 0.625 µg/mL; MIC [11, 22]: 0.625 µg/mL

— US5496947A, “Quinolone carboxylic acid derivatives” (Dong Wha Pharmaceutical Industrial Co., Ltd., priority 1994, dated 1996)
